The source made the active and inactive calls.
Tests used:
[1] = alpha-synuclein stem-loop luciferase translation blockers – H4 neuroglioma cells, luminescence, confirmation (AID 1988); format: functional, cell-based
[2] = luciferase reporter signal reduction – luminescence, H4-C neuroglioblastoma cells, dose response (AID 2458); format: functional, cell-based;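 note: H4 neuroglioblastoma cells stably carrying a luciferase reporter gene fusion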
cells [3] = format: functional, cell-based
[4] = alpha-synuclein stem-loop translation blockers – luminescence, H4 neuroglioblastoma cells, dose confirmation, confirmation (AID 2454); format: functional, cell-based;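 note: H4 neuroglioblastoma cells carrying an alpha-synuclein 5'UTR luciferase reporter; potency for inhibition of the luciferase signal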
[5] = luciferase reporter signal suppression in cells – H4 neuroglioma cells, luminescence, dose response (AID 1990); format: functional, cell-based
[6] = Luminescence Cell-Based Dose Response HTS to Identify Inhibitors of 5'UTR Stem-Loop Driven Prion Protein mRNA Translation in H4 Neuroglioblastoma Cells. [Related pubchem assays: 1827 (Project Summary), 1813 (Primary HTS)]; format: functional
Protein Tat = Protein Tat (Human immunodeficiency virus type 1 group M subtype B (isolate HXB2)(HIV-1), UniProt P04608); format: functional;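 note: tat binding to TAR RNA read out by fluorescence polarization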
Chain of Protein Tat (P04608 whole entry): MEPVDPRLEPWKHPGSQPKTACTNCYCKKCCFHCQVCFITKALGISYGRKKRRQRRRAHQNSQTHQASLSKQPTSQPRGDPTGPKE

[7] = molecular target: T1, Mannose-6-phosphate isomerase (Homo sapiens, UniProt P34949); assay: MPI inhibition at elevated mannose 6-phosphate – biochemical, fluorescence intensity, high mannose 6-phosphate, primary screen (AID 1220)
T1 sequence (P34949 whole entry): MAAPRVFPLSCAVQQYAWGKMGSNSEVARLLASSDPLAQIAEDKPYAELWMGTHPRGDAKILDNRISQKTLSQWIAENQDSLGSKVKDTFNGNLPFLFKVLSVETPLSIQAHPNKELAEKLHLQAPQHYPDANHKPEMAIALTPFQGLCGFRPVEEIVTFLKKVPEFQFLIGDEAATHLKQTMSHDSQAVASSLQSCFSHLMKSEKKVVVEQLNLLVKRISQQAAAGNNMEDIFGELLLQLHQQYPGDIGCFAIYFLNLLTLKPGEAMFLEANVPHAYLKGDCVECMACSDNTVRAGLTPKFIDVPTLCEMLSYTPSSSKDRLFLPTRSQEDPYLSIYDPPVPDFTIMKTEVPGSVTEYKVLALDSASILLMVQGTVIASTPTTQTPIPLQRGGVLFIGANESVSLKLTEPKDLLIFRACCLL

[8] = NIH3T3 cell viability loss – ATP luminescence, mouse fibroblasts, counter-screen, dose response (AID 2010); format: functional, cell-based;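 note: cells exposed to compound for about 90 hours before reading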
[9] = Trypanosoma cruzi growth suppression in host cells – NIH3T3 host cells, beta-gal luminescence, confirmation (AID 2044); format: functional, cell-based;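 note: intracellular parasites grown in NIH/3T3 mouse fibroblasts as host cells; luminescent beta-galactosidase reporter signal from transgenic T. cruzi replicating inside host cells; inhibitors lower the luminescence signal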
Protein RecA = molecular target: T2, Protein RecA (Mycobacterium tuberculosis, UniProt P9WHJ3); assay: Fluorescence Cell-Free Homogeneous Dose Retest to Identify Inhibitors of RecA-Intein Splicing Activity. [Related pubchem assays (depositor defined):AID2097, AID2223, AID489010, AID492950]; format: functional
T2 sequence (P9WHJ3 whole entry): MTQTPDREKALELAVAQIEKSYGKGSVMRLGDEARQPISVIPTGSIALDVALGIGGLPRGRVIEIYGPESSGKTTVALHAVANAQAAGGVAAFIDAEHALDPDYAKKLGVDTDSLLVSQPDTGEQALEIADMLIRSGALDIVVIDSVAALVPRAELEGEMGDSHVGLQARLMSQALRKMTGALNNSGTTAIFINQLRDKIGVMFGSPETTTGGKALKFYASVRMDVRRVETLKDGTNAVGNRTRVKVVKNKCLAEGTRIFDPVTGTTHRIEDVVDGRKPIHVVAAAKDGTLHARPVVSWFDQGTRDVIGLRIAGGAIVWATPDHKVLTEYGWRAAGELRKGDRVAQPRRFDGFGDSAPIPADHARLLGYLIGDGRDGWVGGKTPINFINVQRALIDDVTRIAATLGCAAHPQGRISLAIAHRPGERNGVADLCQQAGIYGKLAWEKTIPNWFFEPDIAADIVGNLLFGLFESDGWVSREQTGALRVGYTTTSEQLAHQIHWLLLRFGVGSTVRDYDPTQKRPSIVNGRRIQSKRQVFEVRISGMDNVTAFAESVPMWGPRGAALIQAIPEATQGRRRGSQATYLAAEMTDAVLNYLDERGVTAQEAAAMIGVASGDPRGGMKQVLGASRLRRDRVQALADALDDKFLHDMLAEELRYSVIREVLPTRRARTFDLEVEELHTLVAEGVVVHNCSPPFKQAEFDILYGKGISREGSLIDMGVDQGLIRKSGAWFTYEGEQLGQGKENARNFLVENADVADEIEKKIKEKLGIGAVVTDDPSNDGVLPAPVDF

Genome polyprotein = Genome polyprotein (dengue virus type 2, UniProt P29990); assay: flavivirus cap methylation enzyme inhibition – biochemical, confirmation dose response, primary screen (AID 588689); format: functional
Chain of Genome polyprotein (P29990 2492-3391 limits assumed): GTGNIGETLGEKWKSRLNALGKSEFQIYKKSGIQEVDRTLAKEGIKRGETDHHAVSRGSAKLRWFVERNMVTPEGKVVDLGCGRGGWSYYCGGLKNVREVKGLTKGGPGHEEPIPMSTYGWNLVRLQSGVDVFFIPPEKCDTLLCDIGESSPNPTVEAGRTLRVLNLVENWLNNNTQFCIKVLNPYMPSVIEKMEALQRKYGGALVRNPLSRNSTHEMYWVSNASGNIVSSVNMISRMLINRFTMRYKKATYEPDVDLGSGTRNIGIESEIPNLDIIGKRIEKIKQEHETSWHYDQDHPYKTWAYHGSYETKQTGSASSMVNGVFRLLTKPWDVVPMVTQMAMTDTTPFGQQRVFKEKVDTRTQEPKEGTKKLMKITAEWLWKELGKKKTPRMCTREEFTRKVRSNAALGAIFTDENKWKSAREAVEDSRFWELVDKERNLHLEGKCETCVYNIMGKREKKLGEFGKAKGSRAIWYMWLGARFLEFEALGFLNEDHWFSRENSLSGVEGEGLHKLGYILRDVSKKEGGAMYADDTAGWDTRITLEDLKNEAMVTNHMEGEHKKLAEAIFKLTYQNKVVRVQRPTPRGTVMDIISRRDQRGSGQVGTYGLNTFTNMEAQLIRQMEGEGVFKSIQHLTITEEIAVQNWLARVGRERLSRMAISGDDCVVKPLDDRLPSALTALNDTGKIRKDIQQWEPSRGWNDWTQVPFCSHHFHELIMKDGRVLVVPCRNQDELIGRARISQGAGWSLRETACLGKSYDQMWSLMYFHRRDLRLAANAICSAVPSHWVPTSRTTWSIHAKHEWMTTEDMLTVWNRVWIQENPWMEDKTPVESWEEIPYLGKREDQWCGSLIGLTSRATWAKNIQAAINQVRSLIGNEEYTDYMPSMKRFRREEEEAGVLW

[10] = molecular target: T3, Replicative DNA helicase DnaB (Mycobacterium tuberculosis, UniProt P9WMR3); assay: DnaB intein splicing inhibitors, dose response, biochemical, cell-free fluorescence (AID 449749); format: functional
T3 sequence (P9WMR3 whole entry): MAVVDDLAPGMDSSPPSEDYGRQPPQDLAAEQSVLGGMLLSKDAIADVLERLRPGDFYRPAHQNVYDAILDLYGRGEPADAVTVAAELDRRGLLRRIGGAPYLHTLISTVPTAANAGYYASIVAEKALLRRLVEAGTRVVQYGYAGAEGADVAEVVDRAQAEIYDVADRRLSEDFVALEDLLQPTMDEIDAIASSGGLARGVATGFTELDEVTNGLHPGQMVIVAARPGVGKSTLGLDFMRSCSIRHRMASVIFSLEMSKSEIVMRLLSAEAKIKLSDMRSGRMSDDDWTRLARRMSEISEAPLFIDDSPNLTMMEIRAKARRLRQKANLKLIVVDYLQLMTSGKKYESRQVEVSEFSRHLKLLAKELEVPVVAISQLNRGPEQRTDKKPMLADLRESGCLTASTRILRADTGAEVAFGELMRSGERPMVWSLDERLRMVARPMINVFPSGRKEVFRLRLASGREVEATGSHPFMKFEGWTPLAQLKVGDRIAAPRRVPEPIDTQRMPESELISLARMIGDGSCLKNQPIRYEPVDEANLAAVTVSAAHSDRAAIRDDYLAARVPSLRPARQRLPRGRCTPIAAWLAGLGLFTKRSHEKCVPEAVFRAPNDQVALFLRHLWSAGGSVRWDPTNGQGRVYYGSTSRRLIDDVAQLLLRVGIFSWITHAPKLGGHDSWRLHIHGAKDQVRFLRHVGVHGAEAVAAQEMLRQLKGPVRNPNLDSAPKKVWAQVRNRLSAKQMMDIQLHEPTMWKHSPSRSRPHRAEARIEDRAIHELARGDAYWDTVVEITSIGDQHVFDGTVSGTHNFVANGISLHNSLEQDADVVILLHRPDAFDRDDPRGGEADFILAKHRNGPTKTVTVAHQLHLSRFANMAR

[11] = molecular target: Bifunctional protein GlmU (Mycobacterium tuberculosis, UniProt P9WMN3); assay: Inhibitors of Mycobacterial Glucosamine-1-phosphate acetyl transferase (GlmU). Secondary screen.; parameters: species or system Mycobacterium tuberculosis H37Rv
Chain of Bifunctional protein GlmU (P9WMN3 whole entry): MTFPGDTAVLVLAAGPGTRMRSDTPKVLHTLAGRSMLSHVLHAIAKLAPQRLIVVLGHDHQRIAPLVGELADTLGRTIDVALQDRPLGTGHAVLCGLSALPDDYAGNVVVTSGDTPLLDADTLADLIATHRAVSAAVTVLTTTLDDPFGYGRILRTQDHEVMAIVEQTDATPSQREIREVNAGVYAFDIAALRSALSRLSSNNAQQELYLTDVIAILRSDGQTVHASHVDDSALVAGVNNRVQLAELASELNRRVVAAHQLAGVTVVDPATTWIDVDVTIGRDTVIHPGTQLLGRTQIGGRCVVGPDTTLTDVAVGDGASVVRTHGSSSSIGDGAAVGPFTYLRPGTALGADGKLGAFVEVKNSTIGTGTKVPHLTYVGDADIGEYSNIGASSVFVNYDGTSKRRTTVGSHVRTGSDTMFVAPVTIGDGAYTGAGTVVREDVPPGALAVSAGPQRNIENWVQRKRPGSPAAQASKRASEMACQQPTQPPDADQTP

[12] = RKO cell viability reduction, dose response, CellTiter-Glo luminescence (AID 1117322); format: functional
[13] = cytotoxicity toward HCT116 cells – cell-based, CellTiter-Glo luminescence, IC50, dose response (AID 1117332); format: functional; conditions: HCT-116
[14] = cytotoxicity toward Colo320 cells – cell-based, CellTiter-Glo luminescence, IC50, dose response (AID 1117334); format: functional; conditions: COLO 320
[15] = HCT116 cell viability decrease, GSK3B pretreatment – CellTiter-Glo, IC50, dose response (AID 1117339); format: functional; conditions: HCT-116
[16] = cytotoxicity toward HT-29 cells – cell-based, CellTiter-Glo luminescence, IC50, dose response (AID 1117330); format: functional
[17] = rise of 4N DNA cells, HeLa – IC50, dose response (AID 1117351); format: functional, cell-based
[18] = rise of 2N DNA cells, HeLa – IC50, dose response (AID 1117349); format: functional, cell-based
[19] = Reduced DLD-1 viability, concentration-response, CellTiter-Glo luminescence (AID 1117352); format: functional
[20] = CellTiter-Glo luminescence survival assay, SW480 colon tumor line, concentration-response curve, half-maximal inhibitory concentration (AID 1117338); format: functional
[21] = SNU-C1 cell viability reduction, dose response, CellTiter-Glo luminescence (AID 1117323); format: functional, cell-based
cells [22] = assay: cells
[23] = molecular target: T4, Short transient receptor potential channel 4 (Mus musculus, UniProt Q9QUQ5); assay: block of DAMGO-driven TRPC4 calcium entry – cell-based, HEK293 TRPC4/mu-opioid, Fluo-4 calcium, dose response (AID 434942); format: functional;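 note: potency of inhibitors blocking the TRPC4 calcium response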
T4 sequence (Q9QUQ5 whole entry): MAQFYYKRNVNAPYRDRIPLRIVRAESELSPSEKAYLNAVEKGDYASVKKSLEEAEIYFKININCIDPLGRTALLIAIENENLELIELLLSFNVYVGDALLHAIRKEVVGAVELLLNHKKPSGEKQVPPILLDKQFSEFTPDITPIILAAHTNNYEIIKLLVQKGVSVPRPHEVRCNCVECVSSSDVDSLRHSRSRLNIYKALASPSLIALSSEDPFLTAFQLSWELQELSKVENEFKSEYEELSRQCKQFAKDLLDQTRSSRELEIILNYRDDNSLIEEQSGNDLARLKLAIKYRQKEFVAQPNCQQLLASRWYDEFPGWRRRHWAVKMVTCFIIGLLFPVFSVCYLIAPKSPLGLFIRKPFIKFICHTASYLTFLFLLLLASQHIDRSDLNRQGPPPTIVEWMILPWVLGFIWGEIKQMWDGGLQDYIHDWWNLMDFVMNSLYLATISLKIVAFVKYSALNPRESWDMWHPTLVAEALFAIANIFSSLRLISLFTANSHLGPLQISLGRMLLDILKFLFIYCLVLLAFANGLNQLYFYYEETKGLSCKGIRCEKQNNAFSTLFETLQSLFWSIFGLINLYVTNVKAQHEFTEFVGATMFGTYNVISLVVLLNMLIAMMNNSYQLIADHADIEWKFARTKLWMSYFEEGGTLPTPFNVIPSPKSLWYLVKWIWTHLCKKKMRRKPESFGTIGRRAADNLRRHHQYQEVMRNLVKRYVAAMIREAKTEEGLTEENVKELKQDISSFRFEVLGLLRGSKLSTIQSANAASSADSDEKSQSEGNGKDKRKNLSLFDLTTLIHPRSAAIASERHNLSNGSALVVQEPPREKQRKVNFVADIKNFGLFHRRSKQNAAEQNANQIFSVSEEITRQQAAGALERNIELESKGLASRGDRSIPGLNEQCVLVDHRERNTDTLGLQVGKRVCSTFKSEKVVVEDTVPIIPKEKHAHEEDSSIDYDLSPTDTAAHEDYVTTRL

[24] = viability loss in THP-1 monocytes – THP-1 cells, cytotoxicity control for Vif-APOBEC3G degradation inhibitor project, dose response (AID 1117359); format: functional; conditions: THP-1
[25] = HIV-1 Vif–A3G interaction blockers – biochemical, TR-FRET, GST-Vif 1-94, biotin-A3G peptide, dose response retest, primary screen (AID 1117319); format: functional;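 note: TR-FRET signal of purified GST-Vif binding a biotinylated A3G peptide; inhibitors lower the FRET signal by blocking Vif and A3G binding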
[26] = molecular target: Induced myeloid leukemia cell differentiation protein Mcl-1 (Homo sapiens, UniProt Q07820); format: functional
Chain of Induced myeloid leukemia cell differentiation protein Mcl-1 (Q07820 whole entry): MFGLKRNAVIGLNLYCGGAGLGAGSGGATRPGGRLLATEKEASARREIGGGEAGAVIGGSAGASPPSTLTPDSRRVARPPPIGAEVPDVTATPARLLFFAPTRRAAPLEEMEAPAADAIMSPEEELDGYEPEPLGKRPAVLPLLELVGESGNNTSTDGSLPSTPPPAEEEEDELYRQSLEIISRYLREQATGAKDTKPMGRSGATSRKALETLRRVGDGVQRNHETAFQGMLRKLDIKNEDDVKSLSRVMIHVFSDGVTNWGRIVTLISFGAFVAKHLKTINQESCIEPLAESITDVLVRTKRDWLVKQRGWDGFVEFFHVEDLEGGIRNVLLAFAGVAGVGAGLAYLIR

[27] = THP-1 cell cytotoxicity, dose response, cytotoxicity control for non-replicating M. tuberculosis project (AID 489025); format: functional
Large T antigen = Large T antigen (Simian virus 40, UniProt P03070); format: functional, Betapolyomavirus macacae;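 note: Confirmatory-stage PubChem screen for compounds that inhibit SV40 T antigen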
Chain of Large T antigen (P03070 whole entry): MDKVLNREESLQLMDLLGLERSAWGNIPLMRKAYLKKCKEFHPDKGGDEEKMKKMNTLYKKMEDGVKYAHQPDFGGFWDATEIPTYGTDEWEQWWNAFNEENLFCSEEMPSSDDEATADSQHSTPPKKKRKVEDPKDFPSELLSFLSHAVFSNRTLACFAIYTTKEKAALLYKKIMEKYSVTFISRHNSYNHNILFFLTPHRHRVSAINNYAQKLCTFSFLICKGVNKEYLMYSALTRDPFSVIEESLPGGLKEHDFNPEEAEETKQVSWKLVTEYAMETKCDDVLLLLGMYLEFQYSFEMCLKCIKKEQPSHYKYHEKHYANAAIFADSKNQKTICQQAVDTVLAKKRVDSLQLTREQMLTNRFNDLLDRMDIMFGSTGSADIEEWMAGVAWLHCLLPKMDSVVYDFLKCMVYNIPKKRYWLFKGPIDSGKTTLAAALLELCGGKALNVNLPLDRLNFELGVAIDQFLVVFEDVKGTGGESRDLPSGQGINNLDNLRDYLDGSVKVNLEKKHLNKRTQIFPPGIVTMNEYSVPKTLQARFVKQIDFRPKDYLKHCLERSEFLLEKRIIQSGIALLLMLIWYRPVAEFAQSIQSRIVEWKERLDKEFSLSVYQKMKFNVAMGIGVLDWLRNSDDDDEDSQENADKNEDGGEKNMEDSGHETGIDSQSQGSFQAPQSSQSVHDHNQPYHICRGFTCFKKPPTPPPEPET

cells [28] = format: functional

CCC(C)Cn1c(O)cc2nn(-c3nc4ccccc4s3)c(=O)c-2c1C (stereo not drawn)
EC50 [1]: < 0.1 µM (active)
EC50 [2]: 0.058 µM (active)
EC50 (cells [3]): 0.114 µM (active)
EC50 [4]: 0.072 µM (active)
EC50 [5]: < 0.1 µM (active)
EC50 [6]: 0.165 µM (active)
IC50 (Protein Tat): > 50 µM (active)

COc1ccccc1CNc1ccc(N2CCCCC2)cc1
IC50 [7]: > 50 µM (not active)
EC50 [8]: > 60 µM (not active)
EC50 [9]: 3.17 µM (active)

O=C(O)c1cccc(Nc2cc(Cl)c3nonc3c2[N+](=O)[O-])c1
EC50 (Protein RecA): 2.52 µM (active)
IC50 (Genome polyprotein): 10.7 µM (active)
AC50 [10]: 2.05 µM (active)
IC50 [11]: 131 µM (active)

O=C(CCl)c1ccc(Cl)cc1Cl
IC50 [12]: 4.3 µM (active)
IC50 [13]: 6.3 µM (inactive)
IC50 [14]: 0.53 µM (active)
IC50 [15]: 1.1 µM (active)
IC50 [16]: 8.52 µM (inactive)
IC50 [17]: > 10 µM (inactive)
IC50 [18]: 0.514 µM (active)
IC50 [19]: 2.07 µM (active)
IC50 [20]: 1.25 µM (active)
IC50 [21]: 2.98 µM (active)

Clc1cccc(C[n+]2cc(-c3ccccc3)n3c2CCC3)c1
EC50 (cells [22]): 0.007 µM (active)
EC50 [8]: > 60 µM (not active)
EC50 [9]: < 0.1 µM (active)
EC50 [23]: 0.944 µM (active)

COc1ccccc1C1=Nc2cccc3cccc(c23)N1
CC50 [24]: > 40 µM (active)
IC50 [25]: > 63.3 µM (active)
IC50 [26]: < 0.4 µM (not active)
EC50 [8]: > 30 µM (not active)
EC50 [9]: 6.83 µM (active)
IC50 (Protein Tat): > 100 µM (inconclusive)

O=C1NC(=S)S/C1=C\c1ccc(SCc2ccco2)o1
CC50 [27]: > 40 µM (active)
CC50 [24]: > 40 µM (active)
IC50 [26]: 1.53 µM (active)
IC50 [11]: 17.7 µM (active)
IC50 (Large T antigen): 6.01 µM (active)

O=[N+]([O-])c1ccc(Oc2ccc(N=C=S)cc2)cc1 [NITROSCANATE]
IC50 [12]: 2.34 µM (active)
IC50 [13]: 2.77 µM (active)
IC50 [14]: 1.46 µM (active)
IC50 [15]: 1.47 µM (active)
IC50 [16]: 1.07 µM (active)
IC50 [17]: > 10 µM (inactive)
IC50 [18]: > 10 µM (inactive)
IC50 [19]: 2.1 µM (active)
IC50 [20]: 1.63 µM (active)
IC50 [21]: 4.33 µM (active)

COc1cccc(OCCNC(=O)c2cc([N+](=O)[O-])cc([N+](=O)[O-])c2)c1
EC50 (cells [22]): 0.086 µM (active)
EC50 [8]: > 60 µM (not active)
EC50 [9]: < 0.1 µM (active)
IC50 (cells [28]): 0.36 µM (active)

Reference: ChEMBL document CHEMBL1201862, “PubChem BioAssay data set” (2004)
